Tests used:
soybean [1] = assay: Test A postemergence; format: in vivo, Glycine max; settings: postemergence, 10 days; for Plant response rating, Soybean: 500 g ai/ha, visual injury, 0 to 100 scale (0 no effect, 100 complete control)
Summary of the method: (§1)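 Weeds and crops in loam–sand blend were sprayed preemergence onto soil or postemergence at 2–10 cm (one- to two-leaf stage). Test chemicals were in a non-phytotoxic solvent with surfactant. After 10 days in the greenhouse, injury was rated visually against untreated controls on a 0 (no effect) to 100 (complete control) scale.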

ragweed [2] = assay: Test A preemergence; format: in vivo, Ambrosia artemisiifolia
Summary of the method: as §1

oat, wild [3] = assay: Test A postemergence; format: in vivo, Avena fatua; settings: postemergence, 10 days; for Plant response rating, Oat, Wild: 500 g ai/ha, visual injury, 0 to 100 scale (0 no effect, 100 complete control)
Summary of the method: as §1

foxtail, giant [4] = assay: Test A postemergence; format: in vivo, Setaria faberi; settings: postemergence, 10 days; for Plant response rating, Foxtail, Giant: visual injury, 0 to 100 scale (0 no effect, 100 complete control)
Summary of the method: as §1

goosegrass [5] = assay: Test A postemergence; format: in vivo, Eleusine indica; settings: postemergence, 10 days; for Plant response rating, Goosegrass: visual injury, 0 to 100 scale (0 no effect, 100 complete control)
Summary of the method: as §1

corn [6] = assay: Test A postemergence; format: in vivo, Zea mays; settings: postemergence, 10 days; for Plant response rating, Corn: visual injury, 0 to 100 scale (0 no effect, 100 complete control)
Summary of the method: as §1

kochia [7] = assay: Test A postemergence; format: in vivo, Bassia scoparia; settings: postemergence, 10 days; for Plant response rating, Kochia: visual injury, 0 to 100 scale (0 no effect, 100 complete control)
Summary of the method: as §1

ryegrass, Italian [8] = assay: Test A preemergence; format: in vivo, Lolium multiflorum
Summary of the method: as §1

oat, wild [9] = assay: Test A preemergence; format: in vivo, Avena fatua
Summary of the method: as §1

blackgrass [10] = assay: Test A postemergence; format: in vivo, Alopecurus myosuroides
Summary of the method: as §1

wheat [11] = assay: Test A postemergence; format: in vivo, Triticum aestivum; settings: postemergence, 10 days; for Plant response rating, Wheat: 500 g ai/ha, visual injury, 0 to 100 scale (0 no effect, 100 complete control)
Summary of the method: as §1

barnyardgrass = assay: Test B flooded paddy test; format: in vivo, Echinochloa crus-galli; settings: 250 g ai/ha, Flood, 13 days, 0 to 100 scale (0 no effect, 100 complete control)
Summary of the method: (§2)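 Species grown to 2-leaf stage; pots flooded 3 cm above soil and compound applied directly to paddy water, depth maintained throughout. After 13 days in greenhouse, plants visually rated against controls on 0–100 scale (0 no effect, 100 complete control); dash means no result.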

soybean [12] = assay: Test A preemergence; format: in vivo, Glycine max
Summary of the method: as §1

corn [13] = assay: Test A preemergence; format: in vivo, Zea mays
Summary of the method: as §1

ducksalad = assay: Test B flooded paddy test; format: in vivo, Heteranthera limosa; settings: 250 g ai/ha, Flood, 13 days, 0 to 100 scale (0 no effect, 100 complete control)
Summary of the method: as §2

sedge, umbrella = assay: Test B flooded paddy test; format: in vivo, Cyperus difformis; settings: 250 g ai/ha, Flood, 13 days, 0 to 100 scale (0 no effect, 100 complete control)
Summary of the method: as §2

galium = assay: Test A postemergence; format: in vivo, Galium aparine; settings: postemergence, 10 days; for Plant response rating, Galium: visual injury, 0 to 100 scale (0 no effect, 100 complete control)
Summary of the method: as §1

pigweed, palmer [14] = assay: Test A postemergence; format: in vivo, Amaranthus palmeri; settings: postemergence, 10 days; for Plant response rating, Pigweed, Palmer: 500 g ai/ha, visual injury, 0 to 100 scale (0 no effect, 100 complete control)
Summary of the method: as §1

ragweed [15] = assay: Test A postemergence; format: in vivo, Ambrosia artemisiifolia; settings: postemergence, 10 days; for Plant response rating, Ragweed: 500 g ai/ha, visual injury, 0 to 100 scale (0 no effect, 100 complete control)
Summary of the method: as §1

goosegrass [16] = assay: Test A preemergence; format: in vivo, Eleusine indica
Summary of the method: as §1

ryegrass, Italian [17] = assay: Test A postemergence; format: in vivo, Lolium multiflorum; settings: postemergence, 10 days; for Plant response rating, Ryegrass, Italian: 500 g ai/ha, visual injury, 0 to 100 scale (0 no effect, 100 complete control)
Summary of the method: as §1

horseweed = assay: Test A postemergence; format: in vivo, Erigeron canadensis; settings: postemergence, 10 days; for Plant response rating, Horseweed: visual injury, 0 to 100 scale (0 no effect, 100 complete control)
Summary of the method: as §1

foxtail, giant [18] = assay: Test A preemergence; format: in vivo, Setaria faberi
Summary of the method: as §1

wheat [19] = assay: Test A preemergence; format: in vivo, Triticum aestivum
Summary of the method: as §1

rice = assay: Test B flooded paddy test; format: in vivo, Oryza sativa; settings: 250 g ai/ha, Flood, 13 days, 0 to 100 scale (0 no effect, 100 complete control)
Summary of the method: as §2

kochia [20] = assay: Test A preemergence; format: in vivo, Bassia scoparia
Summary of the method: as §1

blackgrass [21] = assay: Test A preemergence; format: in vivo, Alopecurus myosuroides
Summary of the method: as §1

pigweed, palmer [22] = assay: Test A preemergence; format: in vivo, Amaranthus palmeri
Summary of the method: as §1

[23] = 125 g ai/ha, 0 to 100 scale, 0 no effect, 100 complete control
[24] = 125 g ai/ha, visual injury after 10 days, 0 to 100 scale, 0 is no effect, 100 is complete control
[25] = 500 g ai/ha, 0 to 100 scale (0 no effect, 100 complete control), 10 days

CCc1ccc(-n2cnc(C3CC3)n2)cc1C(=O)N1C[C@H](C)Oc2c(Cl)cccc21 [Compound 103]
10: Corn plant response rating (corn [6]; [23]) | Wheat plant response rating (wheat [11]; [23]) | Plant response rating, Horseweed (horseweed; 500 g ai/ha) | Plant response rating, Rice (rice)
50: Ryegrass, Italian plant response rating (ryegrass, Italian [17]; [23]) | Plant response rating, Kochia (kochia [20]; [24]) | Plant response rating, Blackgrass (blackgrass [21]; [24])
0: Plant response rating, Ragweed (ragweed [2]; [24]) | Plant response rating, Ragweed (ragweed [2]; [25]) | Ragweed plant response rating (ragweed [15]; [23]) | Horseweed plant response rating (horseweed; [23]) | Plant response rating, Wheat (wheat [19]; [24]) | Plant response rating, Wheat (wheat [19]; [25])
90: Foxtail, Giant plant response rating (foxtail, giant [4]; [23]) | Plant response rating, Foxtail, Giant (foxtail, giant [4]; 500 g ai/ha) | Plant response rating, Ryegrass, Italian (ryegrass, Italian [8]; [25]) | Plant response rating, Blackgrass (blackgrass [10]; 500 g ai/ha, postemergence, 10 days, visual injury, 0 to 100 scale (0 no effect, 100 complete control)) | Pigweed, Palmer plant response rating (pigweed, palmer [14]; [23]) | Plant response rating, Kochia (kochia [20]; [25]) | Plant response rating, Pigweed, Palmer (pigweed, palmer [22]; [24])
30: Oat, Wild plant response rating (oat, wild [3]; [23]) | Plant response rating, Wheat (wheat [11]) | Plant response rating, Soybean (soybean [12]; [24])
70: Goosegrass plant response rating (goosegrass [5]; [23])
60: Blackgrass plant response rating (blackgrass [10]; 125 g ai/ha, postemergence, 10 days, 0 to 100 scale, 0 no effect, 100 complete control) | Plant response rating, Soybean (soybean [12]; [25]) | Plant response rating, Ryegrass, Italian (ryegrass, Italian [17])
20: Plant response rating, Barnyardgrass (barnyardgrass) | Plant response rating, Corn (corn [13]; [24]) | Plant response rating, Corn (corn [13]; [25])
40: Plant response rating, Oat, Wild (oat, wild [9]; [24]) | Plant response rating, Oat, Wild (oat, wild [9]; [25]) | Plant response rating, Ragweed (ragweed [15])
80: Plant response rating, Oat, Wild (oat, wild [3]) | Plant response rating, Corn (corn [6]; 500 g ai/ha) | Kochia plant response rating (kochia [7]; [23]) | Plant response rating, Ryegrass, Italian (ryegrass, Italian [8]; [24]) | Plant response rating, Blackgrass (blackgrass [21]; [25])
100: Soybean plant response rating (soybean [1]; [23]) | Plant response rating, Soybean (soybean [1]) | Plant response rating, Goosegrass (goosegrass [5]; 500 g ai/ha) | Plant response rating, Kochia (kochia [7]; 500 g ai/ha) | Plant response rating, Sedge, Umbrella (sedge, umbrella) | Galium plant response rating (galium; [23]) | Plant response rating, Galium (galium; 500 g ai/ha) | Plant response rating, Pigweed, Palmer (pigweed, palmer [14]) | Plant response rating, Goosegrass (goosegrass [16]; [24]) | Plant response rating, Goosegrass (goosegrass [16]; [25]) | Plant response rating, Foxtail, Giant (foxtail, giant [18]; [24]) | Plant response rating, Foxtail, Giant (foxtail, giant [18]; [25]) | Plant response rating, Pigweed, Palmer (pigweed, palmer [22]; [25])
35: Plant response rating, Ducksalad (ducksalad)

Cc1cccc2c1O[C@@H](C)CN2C(=O)c1cccc(-n2cnc(Cl)n2)c1 [Compound 69]
40: Plant response rating, Pigweed, Palmer (pigweed, palmer [14]) | Plant response rating, Blackgrass (blackgrass [21]; [24])
60: Plant response rating, Kochia (kochia [7]; 500 g ai/ha) | Plant response rating, Blackgrass (blackgrass [10]; 500 g ai/ha, Postemergence, 0 to 100 scale) | Plant response rating, Galium (galium; 125 g ai/ha) | Plant response rating, Kochia (kochia [20]; [24])
10: Plant response rating, Corn (corn [6]; 125 g ai/ha) | Plant response rating, Wheat (wheat [11]) | Plant response rating, Wheat (wheat [19]; [24])
20: Plant response rating, Foxtail, Giant (foxtail, giant [4]; 125 g ai/ha) | Plant response rating, Goosegrass (goosegrass [5]; 500 g ai/ha) | Plant response rating, Kochia (kochia [7]; 125 g ai/ha) | Plant response rating, Oat, Wild (oat, wild [9]; [24]) | Plant response rating, Wheat (wheat [19]; [25]) | Plant response rating, Pigweed, Palmer (pigweed, palmer [22]; [24])
0: Plant response rating, Ragweed (ragweed [2]; [24]) | Plant response rating, Ragweed (ragweed [2]; [25]) | Plant response rating, Goosegrass (goosegrass [5]; 125 g ai/ha) | Plant response rating, Blackgrass (blackgrass [10]; 125 g ai/ha, postemergence, 10 days, visual injury, 0 to 100 scale (0 no effect, 100 complete control)) | Plant response rating, Barnyardgrass (barnyardgrass) | Plant response rating, Soybean (soybean [12]; [24]) | Plant response rating, Soybean (soybean [12]; [25]) | Plant response rating, Ducksalad (ducksalad) | Plant response rating, Sedge, Umbrella (sedge, umbrella) | Plant response rating, Horseweed (horseweed; 125 g ai/ha) | Plant response rating, Horseweed (horseweed; 500 g ai/ha) | Plant response rating, Rice (rice)
100: Plant response rating, Soybean (soybean [1]) | Plant response rating, Galium (galium; 500 g ai/ha) | Plant response rating, Goosegrass (goosegrass [16]; [25])
30: Plant response rating, Oat, Wild (oat, wild [3]) | Plant response rating, Corn (corn [6]; 500 g ai/ha) | Plant response rating, Corn (corn [13]; [24]) | Plant response rating, Corn (corn [13]; [25]) | Plant response rating, Ragweed (ragweed [15])
90: Plant response rating, Goosegrass (goosegrass [16]; [24]) | Plant response rating, Foxtail, Giant (foxtail, giant [18]; [24]) | Plant response rating, Foxtail, Giant (foxtail, giant [18]; [25]) | Plant response rating, Blackgrass (blackgrass [21]; [25]) | Plant response rating, Pigweed, Palmer (pigweed, palmer [22]; [25])
70: Plant response rating, Oat, Wild (oat, wild [9]; [25]) | Plant response rating, Ryegrass, Italian (ryegrass, Italian [17]) | Plant response rating, Kochia (kochia [20]; [25])
80: Plant response rating, Foxtail, Giant (foxtail, giant [4]; 500 g ai/ha) | Plant response rating, Ryegrass, Italian (ryegrass, Italian [8]; [24]) | Plant response rating, Ryegrass, Italian (ryegrass, Italian [8]; [25])
